Measured values: patent US8486933B2, “Pyrimidine inhibitors of kinase activity” (AbbVie Inc., priority 2009, dated 2013)

biological target: T1, human IGF-1R (Homo sapiens, UniProt P08069); experiment: IGF-1R homogenous time-resolved fluorescence (HTRF) in vitro kinase assay; format: biochemical; conditions: recombinant GST-tagged human IGF-1R aa 954-1367; ATP 50 μM; 60 minutes at room temperature
T1 construct: human IGF-1R, amino acids 954-1367 expressed by baculovirus in Sf21 cells; GST (C); purchased Cell Signaling Technology; host or cells: baculovirus in Sf21 cells
T1 sequence (P08069 954-1367): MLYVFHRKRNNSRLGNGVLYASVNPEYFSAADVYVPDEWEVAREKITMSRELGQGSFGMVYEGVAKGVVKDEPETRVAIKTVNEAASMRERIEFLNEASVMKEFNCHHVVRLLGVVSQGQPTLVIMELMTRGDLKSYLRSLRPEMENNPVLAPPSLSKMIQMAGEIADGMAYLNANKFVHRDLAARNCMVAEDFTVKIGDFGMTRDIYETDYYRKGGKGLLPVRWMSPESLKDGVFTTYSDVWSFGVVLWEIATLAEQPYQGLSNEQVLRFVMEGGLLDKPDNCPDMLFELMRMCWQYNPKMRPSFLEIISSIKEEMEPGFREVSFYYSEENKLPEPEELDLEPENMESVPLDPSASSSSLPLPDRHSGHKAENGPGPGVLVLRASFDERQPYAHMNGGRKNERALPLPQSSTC
Method: IGF-1R kinase activity was assayed by a homogenous time-resolved fluorescence (HTRF) in vitro kinase assay (Mathis, G., HTRF(R) Technology. J Biomol Screen, 1999. 4(6): p. 309-314). Specifically, 10 μL C-terminal GST-tagged, recombinant, human IGF-1R, amino acids 954-1367 expressed by baculovirus in Sf21 cells (Cell Singaling Technology) was mixed with 10 μL inhibitor (various concentrations, 2% final DMSO) and 10 μL of ATP (50 μM final concentration) in reaction buffer (50 mM HEPES, pH 7.5, 10 mM MgCl2, 2 mM MnCl2, 0.1% BSA and 1 mM DTT, 40 μL final volume). The reaction was initiated by addition of 10 μL of biotinylated peptide substrate (Biotin-Ahx-[…], 0.5 μM final concentration) in a black 384-well plate (Packard). […] The quenched reaction was allowed to stand at room temperature for 1 hour and then read in a time-resolved fluorescence detector (Envision, Perkin Elmer) at 615 nm and 665 nm simultaneously. The ratio between the signal of 615 nm and 665 nm was used in the calculation of the IC50.

Row | IC50 | Compound
1 | > 500 nM | CCN1CCN(c2ccc(Nc3ncc(Br)c(Nc4ccc5[nH]c(C(F)(F)F)nc5c4)n3)cc2)CC1 [Example 1, 5-bromo-N^2-[4-(4-ethylpiperazin-1-yl)phenyl]-N^4-[2-(trifluoromethyl)-1H-benzimidazol-5-yl]pyrimidine-2,4-diamine]
2 | > 500 nM | CCN1CCN(c2ccc(Nc3ncc(Br)c(Nc4ccc5[nH]c(Cc6ccccc6)nc5c4)n3)cc2)CC1 [Example 2, N^4-(2-benzyl-1H-benzimidazol-5-yl)-5-bromo-N^2-[4-(4-ethylpiperazin-1-yl)phenyl]pyrimidine-2,4-diamine]
3 | > 500 nM | CCN1CCN(c2ccc(Nc3ncc(Br)c(Nc4ccc5[nH]c(CCc6ccccc6)nc5c4)n3)cc2)CC1 [Example 3, 5-bromo-N^2-[4-(4-ethylpiperazin-1-yl)phenyl]-N^4-[2-(2-phenylethyl)-1H-benzimidazol-5-yl]pyrimidine-2,4-diamine]
4 | 101 to 500 nM | CCN1CCN(c2ccc(Nc3ncc(Br)c(Nc4ccc5c(c4)ncn5Cc4ccccc4)n3)cc2)CC1 [Example 4, N^4-(1-benzyl-1H-benzimidazol-5-yl)-5-bromo-N^2-[4-(4-ethylpiperazin-1-yl)phenyl]pyrimidine-2,4-diamine]
5 | > 500 nM | CCN1CCN(c2ccc(Nc3ncc(Br)c(Nc4ccc5ncn(Cc6ccccc6)c5c4)n3)cc2)CC1 [Example 5, N^4-(1-benzyl-1H-benzimidazol-6-yl)-5-bromo-N^2-[4-(4-ethylpiperazin-1-yl)phenyl]pyrimidine-2,4-diamine]
6 | > 500 nM | CCN1CCN(c2ccc(Nc3ncc(Br)c(Nc4cccc5[nH]c(C)nc45)n3)cc2)CC1 [Example 6, 5-bromo-N^2-[4-(4-ethylpiperazin-1-yl)phenyl]-N^4-(2-methyl-1H-benzimidazol-4-yl)pyrimidine-2,4-diamine]
7 | 51 to 100 nM | CCN1CCN(c2ccc(Nc3ncc(Br)c(Nc4ccc5[nH]ncc5c4)n3)cc2)CC1 [Example 7, 5-bromo-N^2-[4-(4-ethylpiperazin-1-yl)phenyl]-N^4-1H-indazol-5-ylpyrimidine-2,4-diamine]
8 | > 500 nM | CCN1CCN(c2ccc(Nc3ncc(C)c(Nc4ccc5[nH]ncc5c4)n3)cc2)CC1 [Example 9, N^2-[4-(4-ethylpiperazin-1-yl)phenyl]-N^4-1H-indazol-5-yl-5-methylpyrimidine-2,4-diamine]
9 | 101 to 500 nM | CCN1CCN(c2ccc(Nc3ncc(C(F)(F)F)c(Nc4ccc5[nH]ncc5c4)n3)cc2)CC1 [Example 11, N^2-[4-(4-ethylpiperazin-1-yl)phenyl]-N^4-1H-indazol-5-yl-5-(trifluoromethyl)pyrimidine-2,4-diamine]
10 | 10 to 50 nM | COc1cc(N2CCC(N(C)C)CC2)ccc1Nc1ncc(Br)c(Nc2ccc3[nH]ncc3c2)n1 [Example 12, 5-bromo-N^2-{4-[4-(dimethylamino)piperidin-1-yl]-2-methoxyphenyl}-N^4-1H-indazol-5-ylpyrimidine-2,4-diamine]
11 | 10 to 50 nM | COc1cc(N2CCC(N3CCN(C)CC3)CC2)ccc1Nc1ncc(Br)c(Nc2ccc3[nH]ncc3c2)n1 [Example 13, 5-bromo-N^4-1H-indazol-5-yl-N^2-{2-methoxy-4-[4-(4-methylpiperazin-1-yl)piperidin-1-yl]phenyl}pyrimidine-2,4-diamine]
12 | 101 to 500 nM | CCN1CCN(c2ccc(Nc3ncc(Br)c(Nc4ccc5scnc5c4)n3)cc2)CC1 [Example 14, N^4-1,3-benzothiazol-5-yl-5-bromo-N^2-[4-(4-ethylpiperazin-1-yl)phenyl]pyrimidine-2,4-diamine]
13 | 101 to 500 nM | CCN1CCN(c2ccc(Nc3ncc(Br)c(Nc4cccc5oc(C)nc45)n3)cc2)CC1 [Example 15, 5-bromo-N^2-[4-(4-ethylpiperazin-1-yl)phenyl]-N^4-(2-methyl-1,3-benzoxazol-4-yl)pyrimidine-2,4-diamine]
14 | 101 to 500 nM | COc1cc(N2CCC(N(C)C)CC2)ccc1Nc1ncc(Br)c(Nc2cccc3[nH]c(C)nc23)n1 [Example 16, 5-bromo-N^2-{4-[4-(dimethylamino)piperidin-1-yl]-2-methoxyphenyl}-N^4-(2-methyl-1H-benzimidazol-4-yl)pyrimidine-2,4-diamine]
15 | > 500 nM | COc1cc(N2CCC(N(C)C)CC2)ccc1Nc1ncc(Cl)c(Nc2cccc3[nH]c(C)nc23)n1 [Example 17, 5-chloro-N^2-{4-[4-(dimethylamino)piperidin-1-yl]-2-methoxyphenyl}-N^4-(2-methyl-1H-benzimidazol-4-yl)pyrimidine-2,4-diamine]
16 | 101 to 500 nM | COc1cc(N2CCC(N(C)C)CC2)ccc1Nc1ncc(Cl)c(Nc2ccc3c(cnn3C)c2)n1 [Example 18, 5-chloro-N^2-{4-[4-(dimethylamino)piperidin-1-yl]-2-methoxyphenyl}-N^4-(1-methyl-1H-indazol-5-yl)pyrimidine-2,4-diamine]
17 | 51 to 100 nM | COc1cc(N2CCC(N(C)C)CC2)ccc1Nc1ncc(Br)c(Nc2ccc3c(cnn3C)c2)n1 [Example 19, 5-bromo-N^2-{4-[4-(dimethylamino)piperidin-1-yl]-2-methoxyphenyl}-N^4-(1-methyl-1H-indazol-5-yl)pyrimidine-2,4-diamine]
18 | 10 to 50 nM | COc1cc(N2CCC(N(C)C)CC2)ccc1Nc1ncc(Br)c(Nc2cc3cn[nH]c3cc2Cl)n1 [Example 20, 5-bromo-N^4-(6-chloro-1H-indazol-5-yl)-N^2-{4-[4-(dimethylamino)piperidin-1-yl]-2-methoxyphenyl}pyrimidine-2,4-diamine]
19 | 101 to 500 nM | COc1cc(N2CCC(N(C)C)CC2)ccc1Nc1ncc(Br)c(Nc2cc3cn[nH]c3cc2C)n1 [Example 21, 5-bromo-N^2-{4-[4-(dimethylamino)piperidin-1-yl]-2-methoxyphenyl}-N^4-(6-methyl-1H-indazol-5-yl)pyrimidine-2,4-diamine]
20 | 51 to 100 nM | COc1cc(N2CCC(N(C)C)CC2)ccc1Nc1ncc(Br)c(Nc2ccc3sc(C)nc3c2)n1 [Example 22, 5-bromo-N^2-{4-[4-(dimethylamino)piperidin-1-yl]-2-methoxyphenyl}-N^4-(2-methyl-1,3-benzothiazol-5-yl)pyrimidine-2,4-diamine]
21 | < 10 nM | COc1cc(N2CCC(N(C)C)CC2)ccc1Nc1ncc(Br)c(Nc2cc3cn[nH]c3cc2S(=O)(=O)C(C)C)n1 [Example 23, 5-bromo-N^2-{4-[4-(dimethylamino)piperidin-1-yl]-2-methoxyphenyl}-N^4-[6-(isopropylsulfonyl)-1H-indazol-5-yl]pyrimidine-2,4-diamine]
22 | 10 to 50 nM | COc1cc(N2CCC(N(C)C)CC2)ccc1Nc1ncc(Br)c(Nc2cc3cn[nH]c3cc2SC(C)C)n1 [Example 24, 5-bromo-N^2-{4-[4-(dimethylamino)piperidin-1-yl]-2-methoxyphenyl}-N^4-[6-(isopropylthio)-1H-indazol-5-yl]pyrimidine-2,4-diamine]
23 | > 500 nM | COc1cc(N2CCC(N(C)C)CC2)ccc1Nc1ncc(Cl)c(Nc2ccc3oc(C)nc3c2)n1 [Example 25, 5-chloro-N^2-{4-[4-(dimethylamino)piperidin-1-yl]-2-methoxyphenyl}-N^4-(2-methyl-1,3-benzoxazol-5-yl)pyrimidine-2,4-diamine]
24 | 10 to 50 nM | COc1cc(N2CCC(N(C)C)CC2)ccc1Nc1ncc(Cl)c(Nc2cc3cn[nH]c3cc2S(=O)(=O)C(C)C)n1 [Example 26, 5-chloro-N^2-{4-[4-(dimethylamino)piperidin-1-yl]-2-methoxyphenyl}-N^4-[6-(isopropylsulfonyl)-1H-indazol-5-yl]pyrimidine-2,4-diamine]
25 | < 10 nM | COc1cc(N2CCC(N(C)C)CC2)ccc1Nc1ncc(Br)c(Nc2cc3cnn(C)c3cc2S(=O)(=O)C(C)C)n1 [Example 27, 5-bromo-N^2-{4-[4-(dimethylamino)piperidin-1-yl]-2-methoxyphenyl}-N^4-[6-(isopropylsulfonyl)-1-methyl-1H-indazol-5-yl]pyrimidine-2,4-diamine]
26 | < 10 nM | COc1cc(N2CCC(N3CCN(C)CC3)CC2)ccc1Nc1ncc(Br)c(Nc2cc3cnn(C)c3cc2S(=O)(=O)C(C)C)n1 [Example 28, 5-bromo-N^4-[6-(isopropylsulfonyl)-1-methyl-1H-indazol-5-yl]-N^2-{2-methoxy-4-[4-(4-methylpiperazin-1-yl)piperidin-1-yl]phenyl}pyrimidine-2,4-diamine]
27 | 101 to 500 nM | COc1cc(N2CCC(N(C)C)CC2)ccc1Nc1ncc(Br)c(Nc2cc3cn(C)nc3cc2S(=O)(=O)C(C)C)n1 [Example 29, 5-bromo-N^2-{4-[4-(dimethylamino)piperidin-1-yl]-2-methoxyphenyl}-N^4-[6-(isopropylsulfonyl)-2-methyl-2H-indazol-5-yl]pyrimidine-2,4-diamine]
28 | < 10 nM | CCS(=O)(=O)c1cc2[nH]ncc2cc1Nc1nc(Nc2ccc(N3CCC(N(C)C)CC3)cc2OC)ncc1Br [Example 30, 5-bromo-N^2-{4-[4-(dimethylamino)piperidin-1-yl]-2-methoxyphenyl}-N^4-[6-(ethylsulfonyl)-1H-indazol-5-yl]pyrimidine-2,4-diamine]
29 | 10 to 50 nM | CCS(=O)(=O)c1cc2[nH]ncc2cc1Nc1nc(Nc2ccc(N3CCC(N(C)C)CC3)cc2)ncc1Br [Example 31, 5-bromo-N^2-{4-[4-(dimethylamino)piperidin-1-yl]phenyl}-N^4-[6-(ethylsulfonyl)-1H-indazol-5-yl]pyrimidine-2,4-diamine]
